Reference: article PMC5941067, “Novel Xanthomonas campestris Long-Chain-Specific 3-Oxoacyl-Acyl Carrier Protein Reductase Involved in Diffusible Signal Factor Synthesis” (mBio, 2018)

Experiments:
FabG1 (XCC1018) = target: T1, FabG1 (XCC1018) (Xanthomonas campestris, UniProt Q8PBU9); experiment: NADPH absorbance decrease at […] nm; type: biochemical; conditions: hydride donor; 3-oxodecanoyl-ACP generated in situ by E. coli FabD and FabB from acyl-ACP and malonyl-CoA
T1 construct: gene fabG; full length, pET-28(b) construct (His tag), E. coli BL21(DE3)
T1 sequence (Q8PBU9 entry or part of it): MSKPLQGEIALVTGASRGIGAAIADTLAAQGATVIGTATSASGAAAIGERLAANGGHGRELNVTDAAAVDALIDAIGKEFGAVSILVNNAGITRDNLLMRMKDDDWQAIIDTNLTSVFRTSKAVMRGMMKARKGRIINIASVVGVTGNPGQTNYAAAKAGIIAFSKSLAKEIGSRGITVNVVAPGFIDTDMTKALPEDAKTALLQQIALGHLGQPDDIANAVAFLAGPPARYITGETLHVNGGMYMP

[1] = target: T2, X. campestris pv. campestris FabH (Xanthomonas campestris, UniProt Q8PBV1); experiment: coupled reaction, MALDI-TOF MS of acyl-ACP products; type: biochemical; conditions: co-substrate malonyl-ACP; with FabG1 or FabG2 and E. coli FabA
T2 construct: purification and tag of this protein not described in the main text
T2 sequence (Q8PBV1 whole entry): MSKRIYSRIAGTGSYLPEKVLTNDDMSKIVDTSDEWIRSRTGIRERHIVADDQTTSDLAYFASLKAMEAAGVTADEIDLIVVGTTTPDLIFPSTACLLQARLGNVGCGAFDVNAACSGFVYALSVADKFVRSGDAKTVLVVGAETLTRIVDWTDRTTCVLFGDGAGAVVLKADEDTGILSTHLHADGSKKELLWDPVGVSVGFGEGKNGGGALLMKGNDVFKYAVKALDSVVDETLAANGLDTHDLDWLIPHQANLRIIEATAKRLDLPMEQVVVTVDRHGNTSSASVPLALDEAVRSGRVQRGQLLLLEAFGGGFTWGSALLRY

## NC(=O)C1=CN([C@@H]2O[C@H](COP(=O)(O)OP(=O)(O)OC[C@H]3O[C@@H](n4cnc5c(N)ncnc54)[C@H](OP(=O)(O)O)[C@@H]3O)[C@@H](O)[C@H]2O)C=CC1 [NADPH]
FabG1 (XCC1018)
  NADPH absorbance decrease at 340 nm: The maximal rate of NADPH reduction of 3-oxodecanoyl-ACP by FabG2

## CCCCCCCC(=O)SCCNC(=O)CCNC(=O)[C@H](O)C(C)(C)COP(=O)(O)OP(=O)(O)OC[C@H]1O[C@@H](n2cnc3c(N)ncnc32)[C@H](O)[C@@H]1OP(=O)(O)O [octanoyl-CoA]
[1]
  coupled reaction, MALDI-TOF MS of acyl-ACP products: X. campestris pv. campestris FabH, octanoyl-CoA, and malonyl-ACP replaced octanoyl-ACP
